Measured values published in PubChem BioAssay AID256 (DTP/NCI, 2004).
Values joined by “and” are separate entries in the source; they are usually repeats but may differ in a detail not shown here. Equal values may be shown once. Toxic doses and inconclusive results are not listed. Non-standard residues stand in square brackets, D forms with d. Residues, ends and D or L forms follow the SMILES beside them. Deg = CCC(N)(CC)C(=O)O

System: CD2F1 mice, L1210 leukemia ip, survival T/C
Assay: NCI In Vivo Anticancer Drug Screen. Data for tumor model L1210 Leukemia (intraperitoneal) in CD2F1 (CDF1) mice
Details: higher = longer survival
Summary of the method: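 Implant tumor; dose compound or vehicle; measure endpoint in both groups; report treated divided by control.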

[1] = endpoint: mean survival time, dose: 100.0 mg/kg/injection, schedule: Q01DX009 (ip), vehicle: saline with Tween-80
[2] = endpoint: mean survival time, dose: 100.0 mg/kg/injection, schedule: Q04DX003 (ip), vehicle: saline with Tween-80
[3] = endpoint: mean survival time, dose: 200.0 mg/kg/injection, schedule: Q01DX009 (ip), vehicle: saline with Tween-80
[4] = endpoint: mean survival time, dose: 200.0 mg/kg/injection, schedule: Q04DX003 (ip), vehicle: saline with Tween-80
[5] = endpoint: mean survival time, dose: 400.0 mg/kg/injection, schedule: Q01DX009 (ip), vehicle: saline with Tween-80
[6] = endpoint: mean survival time, dose: 400.0 mg/kg/injection, schedule: Q04DX003 (ip), vehicle: saline with Tween-80
[7] = endpoint: mean survival time, dose: 100.0 mg/kg/injection, schedule: Q04DX002 (ip), vehicle: saline
[8] = endpoint: mean survival time, dose: 200.0 mg/kg/injection, schedule: Q04DX002 (ip), vehicle: saline
[9] = endpoint: mean survival time, dose: 400.0 mg/kg/injection, schedule: Q04DX002 (ip), vehicle: saline
[10] = endpoint: mean survival time, dose: 50.0 mg/kg/injection, schedule: Q04DX002 (ip), vehicle: saline with Tween-80
[11] = endpoint: mean survival time, dose: 100.0 mg/kg/injection, schedule: Q04DX002 (ip), vehicle: saline with Tween-80
[12] = endpoint: mean survival time, dose: 200.0 mg/kg/injection, schedule: Q04DX002 (ip), vehicle: saline with Tween-80
[13] = endpoint: mean survival time, dose: 25.0 mg/kg/injection, schedule: Q04DX002 (ip), vehicle: saline with Tween-80

With `CC[C@@]1(O)C[C@H](OC2CC(N(C)C)C(OC3CC(O)C(OC4CCC(=O)C(C)O4)C(C)O3)C(C)O2)c2c(cc3c(c2O)C(=O)c2c(O)ccc(O)c2C3=O)[C@H]1C(=O)OC` (some centres not stated) the T/C (endpoint: mean survival time, dose: 0.25 mg/kg/injection, schedule: Q01DX009 (ip), vehicle: water) was 101 % of control and 109 % of control, the T/C (endpoint: mean survival time, dose: 0.5 mg/kg/injection, schedule: Q01DX009 (ip), vehicle: water) was 113 % of control and 117 % of control and 119 % of control and the T/C (endpoint: mean survival time, dose: 1.0 mg/kg/injection, schedule: Q01DX009 (ip), vehicle: water) was 122 % of control. The T/C (endpoint: mean survival time, dose: 4.0 mg/kg/injection, schedule: Q01DX009 (ip), vehicle: water) was 89 % of control.

`CC(=O)n1cc(CS)c(=O)[nH]c1=O` was tested, and the T/C (endpoint: mean survival time, dose: 5.0 mg/kg/injection, schedule: Q01DX001 (ip), vehicle: saline) was 105 % of control, the T/C (endpoint: mean survival time, dose: 10.0 mg/kg/injection, schedule: Q01DX001 (ip), vehicle: saline) was 98 % of control and the T/C (endpoint: mean survival time, dose: 20.0 mg/kg/injection, schedule: Q01DX001 (ip), vehicle: saline) was 105 % of control. The T/C (endpoint: mean survival time, dose: 40.0 mg/kg/injection, schedule: Q01DX001 (ip), vehicle: saline) was 105 % of control and the T/C (endpoint: mean survival time, dose: 80.0 mg/kg/injection, schedule: Q01DX001 (ip), vehicle: saline) was 105 % of control.

In the case of `O=C(Nc1cc(C(F)(F)F)ccc1Cl)c1ccccc1Cl`, the T/C [1] is reported as 104 % of control, the T/C [2] is reported as 103 % of control and the T/C [3] is reported as 94 % of control. For the same compound, the T/C [4] was 103 % of control, the T/C [5] was 104 % of control and the T/C [6] was 101 % of control.

With `CC(=O)Nc1ccc(C(C)=O)cc1` the T/C [2] was 108 % of control, the T/C [4] was 106 % of control and the T/C [6] was 93 % of control.

In the case of `CC1=C(C)CS(=O)(=O)N(c2ccccc2)C1`, the T/C (endpoint: mean survival time, dose: 100.0 mg/kg/injection, schedule: Q01DX001 (ip), vehicle: saline with Tween-80) is reported as 101 % of control, the T/C [1] is reported as 98 % of control and the T/C (endpoint: mean survival time, dose: 200.0 mg/kg/injection, schedule: Q01DX001 (ip), vehicle: saline with Tween-80) is reported as 98 % of control. The T/C [3] was 95 % of control, the T/C (endpoint: mean survival time, dose: 400.0 mg/kg/injection, schedule: Q01DX001 (ip), vehicle: saline with Tween-80) was 86 % of control and the T/C [5] was 95 % of control.

With `COc1cc(NC2CCCCC2O)c2nc(-c3ccc(Cl)cc3)ccc2c1` (configuration not stated) the T/C (endpoint: mean survival time, dose: 50.0 mg/kg/injection, schedule: Q04DX003 (ip), vehicle: saline) was 110 % of control, the T/C (endpoint: mean survival time, dose: 100.0 mg/kg/injection, schedule: Q04DX003 (ip), vehicle: saline) was 96 % of control and the T/C (endpoint: mean survival time, dose: 200.0 mg/kg/injection, schedule: Q04DX003 (ip), vehicle: saline) was 107 % of control. The T/C (endpoint: mean survival time, dose: 400.0 mg/kg/injection, schedule: Q04DX003 (ip), vehicle: saline) was 112 % of control.

`CC(=O)OC1C(CNC(=O)Oc2ccccc2)OC(n2cnc3c(=O)[nH]c(N)nc32)C1OC(C)=O` (configuration not stated) was tested, and the T/C (endpoint: mean survival time, dose: 100.0 mg/kg/injection, schedule: Q01DX001 (ip), vehicle: Klucel (hydroxypropylcellulose) (HPC)) was 88 % of control, the T/C (endpoint: mean survival time, dose: 200.0 mg/kg/injection, schedule: Q01DX001 (ip), vehicle: Klucel (hydroxypropylcellulose) (HPC)) was 94 % of control and the T/C (endpoint: mean survival time, dose: 400.0 mg/kg/injection, schedule: Q01DX001 (ip), vehicle: Klucel (hydroxypropylcellulose) (HPC)) was 91 % of control.

In the case of `CC1CC1C(N)=O` (configuration not stated), the T/C (endpoint: mean survival time, dose: 50.0 mg/kg/injection, schedule: Q04DX002 (ip), vehicle: saline) is reported as 103 % of control, the T/C [7] is reported as 98 % of control and 102 % of control and the T/C [8] is reported as 98 % of control and 103 % of control. For the same compound, the T/C [9] was 101 % of control and 104 % of control, the T/C (endpoint: mean survival time, dose: 600.0 mg/kg/injection, schedule: Q04DX002 (ip), vehicle: saline) was 98 % of control and the T/C (endpoint: mean survival time, dose: 800.0 mg/kg/injection, schedule: Q04DX002 (ip), vehicle: saline) was 100 % of control.

For `CC(C)(CCC(=O)O)C(=O)c1ccccc1`, the T/C [10] was 98 % of control, the T/C [11] was 94 % of control and the T/C [12] was 94 % of control.

In the case of `COCC(=O)C(C(C)=O)C(c1ccccn1)C(C(C)=O)C(=O)COC` (configuration not stated), the T/C (endpoint: mean survival time, dose: 12.5 mg/kg/injection, schedule: Q04DX002 (ip), vehicle: saline with Tween-80) is reported as 96 % of control, the T/C [13] is reported as 96 % of control and the T/C [10] is reported as 104 % of control.

In the case of `O=CNc1cc([N+](=O)[O-])ccc1OCc1ccccc1`, the T/C (endpoint: mean survival time, dose: 100.0 mg/kg/injection, schedule: Q01DX001 (ip), vehicle: saline) is reported as 100 % of control, the T/C (endpoint: mean survival time, dose: 200.0 mg/kg/injection, schedule: Q01DX001 (ip), vehicle: saline) is reported as 97 % of control and the T/C (endpoint: mean survival time, dose: 400.0 mg/kg/injection, schedule: Q01DX001 (ip), vehicle: saline) is reported as 96 % of control.

With `CCC(=O)N(C)[C@@H](C)C(=O)O[C@H]1CC(=O)N(C)c2cc(cc(OC)c2Cl)C/C(C)=C/C=C[C@@H](OC)[C@@]2(O)C[C@H](OC(=O)N2)[C@@H](C)[C@@H]2O[C@@]12C` the T/C (endpoint: mean survival time, dose: 1.3 micrograms/kg/injection, schedule: Q01DX009 (ip), vehicle: saline + alcohol) was 110 % of control, the T/C (endpoint: mean survival time, dose: 2.5 micrograms/kg/injection, schedule: Q01DX009 (ip), vehicle: saline + alcohol) was 119 % of control and the T/C (endpoint: mean survival time, dose: 2.5 micrograms/kg/injection, schedule: Q01DX009 (ip), vehicle: saline) was 109 % of control. For the same compound, the T/C (endpoint: mean survival time, dose: 3.8 micrograms/kg/injection, schedule: Q01DX009 (ip), vehicle: saline + alcohol) was 120 % of control, the T/C (endpoint: mean survival time, dose: 5.0 micrograms/kg/injection, schedule: Q01DX009 (ip), vehicle: saline + alcohol) was 117 % of control and 111 % of control and the T/C (endpoint: mean survival time, dose: 5.0 micrograms/kg/injection, schedule: Q01DX009 (ip), vehicle: saline) was 111 % of control. For the same compound, the T/C (endpoint: mean survival time, dose: 7.5 micrograms/kg/injection, schedule: Q01DX009 (ip), vehicle: saline + alcohol) was 106 % of control, the T/C (endpoint: mean survival time, dose: 10.0 micrograms/kg/injection, schedule: Q01DX009 (ip), vehicle: saline + alcohol) was 115 % of control and the T/C (endpoint: mean survival time, dose: 10.0 micrograms/kg/injection, schedule: Q01DX009 (ip), vehicle: saline) was 111 % of control. The T/C (endpoint: mean survival time, dose: 15.0 micrograms/kg/injection, schedule: Q01DX009 (ip), vehicle: saline + alcohol) was 112 % of control, the T/C (endpoint: mean survival time, dose: 20.0 micrograms/kg/injection, schedule: Q01DX009 (ip), vehicle: saline) was 111 % of control and the T/C (endpoint: mean survival time, dose: 30.0 micrograms/kg/injection, schedule: Q01DX009 (ip), vehicle: saline + alcohol) was 122 % of control. The T/C (endpoint: mean survival time, dose: 30.0 micrograms/kg/injection, schedule: Q01DX009 (ip), vehicle: saline) was 117 % of control and the T/C (endpoint: mean survival time, dose: 60.0 micrograms/kg/injection, schedule: Q01DX009 (ip), vehicle: saline + alcohol) was 114 % of control.

In the case of `COC(=O)C[C@](O)(CCC(C)(C)O)C(=O)O[C@@H]1C(OC)=C[C@]23CCCN2CCc2cc4c(cc2[C@H]13)OCO4`, the T/C (endpoint: median survival time, dose: 0.06 mg/kg/injection, schedule: Q01DX009 (ip), vehicle: saline) is reported as 120 % of control, the T/C (endpoint: median survival time, dose: 0.12 mg/kg/injection, schedule: Q01DX009 (ip), vehicle: saline) is reported as 119 % of control and the T/C (endpoint: median survival time, dose: 0.25 mg/kg/injection, schedule: Q01DX009 (ip), vehicle: saline) is reported as 120 % of control. The T/C (endpoint: median survival time, dose: 0.5 mg/kg/injection, schedule: Q01DX009 (ip), vehicle: saline) was 118 % of control and 120 % of control and the T/C (endpoint: median survival time, dose: 4.0 mg/kg/injection, schedule: Q01DX009 (ip), vehicle: saline) was 153 % of control.

With `COC1=CC(=O)c2ccccc2C1=O` the T/C [2] was 91 % of control and the T/C [4] was 87 % of control.

`NC(C(=O)O)C(CC(=O)O)C(=O)O` (configuration not stated) was tested, and the T/C [7] was 111 % of control, the T/C [8] was 106 % of control and the T/C [9] was 106 % of control.

With `O=C1CCC(=O)ON=c2ccc(cc2)=NO1` the T/C (endpoint: mean survival time, dose: 50.0 mg/kg/injection, schedule: Q01DX009 (ip), vehicle: saline) was 98 % of control, the T/C (endpoint: mean survival time, dose: 100.0 mg/kg/injection, schedule: Q01DX009 (ip), vehicle: saline) was 102 % of control and the T/C (endpoint: mean survival time, dose: 200.0 mg/kg/injection, schedule: Q01DX009 (ip), vehicle: saline) was 90 % of control.

For `CCC(CC)(NC(=O)CN)C(=O)O` (H-Gly-[Deg]-OH), the T/C [11] was 96 % of control, the T/C [12] was 104 % of control and the T/C (endpoint: mean survival time, dose: 400.0 mg/kg/injection, schedule: Q04DX002 (ip), vehicle: saline with Tween-80) was 96 % of control.

With `c1ccc2nc(N3CCCCC3)ccc2c1` the T/C [13] was 94 % of control, the T/C [10] was 94 % of control and the T/C [11] was 94 % of control.

In the case of `CC(=O)Nc1nc(/C=C\c2ccc([N+](=O)[O-])cc2)c(CCCCc2ccccc2)c(=O)[nH]1`, the T/C (endpoint: mean survival time, dose: 3.13 mg/kg/injection, schedule: Q01DX001 (ip), vehicle: saline with Tween-80) is reported as 98 % of control, the T/C (endpoint: mean survival time, dose: 6.25 mg/kg/injection, schedule: Q01DX001 (ip), vehicle: saline with Tween-80) is reported as 96 % of control and the T/C (endpoint: mean survival time, dose: 12.5 mg/kg/injection, schedule: Q01DX001 (ip), vehicle: saline with Tween-80) is reported as 98 % of control.
